Here are results for 24 compounds from patent US11590139B2, “Substituted aminopurine compounds, compositions thereof, and methods of treatment therewith” (Signal Pharmaceuticals, LLC, priority 2014, dated 2023).

One test relates to Lox-IMVI melanoma cell line. The experiment in a line: Lox-IMVI anti-proliferative assay (growth inhibition, Cell Titer-Glo). The class given is cell-based, human. The conditions noted are these: Homo sapiens; IC50 activity level in the cell-based Lox-IMVI anti-proliferative assay; read-out: Activity. As for the experimental part:
Determination of the Growth Inhibitory Effect of Aminopurine Compounds. The Lox-IMVI melanoma cell line (Source: NCI-DCTD, catalog No. 0507283) was maintained and tested in RPMI+10% FBS. The seeding density for the cell line was optimized to ensure assay linearity in 384-well plates.
Increasing concentrations of Aminopurine Compound (0.5 nM to 10 μM) were spotted in a 10-point serial dilution fashion (3-fold dilution) in duplicate within the plate via an acoustic dispenser (EDC ATS-100) into an empty 384-well plate. The dimethyl sulfoxide (DMSO) concentration was kept constant for a final assay concentration of 0.2% DMSO. Prior to testing, cells were grown and expanded in culture flasks to provide sufficient amounts of starting material. Cells were then diluted to their desired densities and added directly to the compound-spotted 384-well plates. Cells were allowed to grow for 72 hours in 5% CO2 at 37° C. At the time when exposure of cells to compound began (t0), initial cell number was assessed via a viability assay (Cell Titer-Glo) by quantifying the level of luminescence generated by adenosine-5′-triphosphate (ATP) present in viable cells. After 72 hours, cell viability of compound-treated cells was assessed via Cell Titer-Glo Luminescent Cell Viability Assay (Promega Corporation, Madison, Wis.) and read for luminescence.
All data was normalized and represented as a percentage of the DMSO-treated control cells after 72 h. Results were expressed as a IC50 value, which is the compound concentration required to inhibit 50% of the untreated control cells during the 72 hours of treatment.
A Four Parameter Logistic Model (Sigmoidal Dose-Response Model) was used to determine the compound's IC50. y=(A+((B−A)/(1+((C/x)^D))))
wherein: • A=YMin • B=YMax • C=EC50 • D=Hill Slope • IC50 is the compound concentration when Y=50% of DMSO control • Y=Luminescence unit
All inhibition curves were processed and evaluated using XLFit and Activity Base (IDBS).
In general terms: In ATP-based viability assays light output follows the ATP content of the culture.
Turning to `NC(=O)[C@H]1CC[C@@H](n2c(Nc3c(Cl)cccc3Cl)nc3cnc(NC4CC5(COC5)C4)nc32)CC1` [Example 174, (1s,4s)-4-(2-(2-oxaspiro[3.3]heptan-6-ylamino)-8-(2,6-dichlorophenylamino)-9H-purin-9-yl)cyclohexanecarboxamide], the IC50 was more than 1000 nM.
In the case of `NC(=O)[C@H]1CC[C@@H](n2c(Nc3c(F)cc(F)cc3Cl)nc3cnc(NC4CCC(F)(F)CC4)nc32)CC1` [Example 185, (1s,4s)-4-(8-(2-chloro-4,6-difluorophenylamino)-2-(4,4-difluorocyclohexylamino)-9H-purin-9-yl)cyclohexanecarboxamide], the IC50 is less than 250 nM.
In the case of `N#Cc1cc(Cl)c(Nc2nc3cnc(NC4CCOCC4)nc3n2[C@H]2CC[C@@H](C(N)=O)CC2)c(Cl)c1` [Example 278, (1s,4s)-4-(8-(2,6-dichloro-4-cyanophenylamino)-2-(tetrahydro-2H-pyran-4-ylamino)-9H-purin-9-yl)cyclohexanecarboxamide], the IC50 was less than 250 nM.
The same measure, in the same setting: the same measure for `N#Cc1cc(F)c(Nc2nc3cnc(NC4CCC4)nc3n2[C@H]2CC[C@@H](C(N)=O)CC2)c(Cl)c1` [Example 393, (1s,4s)-4-(8-(2-chloro-4-cyano-6-fluorophenylamino)-2-(cyclobutylamino)-9H-purin-9-yl)cyclohexanecarboxamide]: 250 to 500 nM; for `NC(=O)[C@H]1CC[C@@H](n2c(Nc3c(F)ccc(Cl)c3F)nc3cnc(NC4CC(F)(F)C4)nc32)CC1` [Example 234, (1s,4s)-4-(8-(3-chloro-2,6-difluorophenylamino)-2-(3,3-difluorocyclobutylamino)-9H-purin-9-yl)cyclohexanecarboxamide]: more than 1000 nM.
On the same count and under the same terms, for `C[C@@H](CO)Nc1ncc2nc(Nc3c(Cl)cccc3Cl)n([C@H]3CC[C@@H](C(N)=O)CC3)c2n1` [Example 168, (1R,4s)-4-(8-(2,6-dichlorophenylamino)-2-((S)-1 hydroxypropan-2-ylamino)-9H-purin-9-yl)cyclohexanecarboxamide] the value was more than 1000 nM; for `NC(=O)[C@H]1CC[C@@H](n2c(Nc3c(F)cc(Cl)cc3Cl)nc3cnc(NCC4(CO)CC4)nc32)CC1` [Example 206, (1s,4s)-4-(8-(2,4-dichloro-6-fluorophenylamino)-2-((1-(hydroxymethyl)cyclopropyl)methylami-no)-9H-purin-9-yl)cyclohexanecarboxamide], more than 1000 nM; for `NC(=O)[C@H]1CC[C@@H](n2c(Nc3c(F)cc(F)cc3F)nc3cnc(NC4COCC4O)nc32)CC1` (stereo partly drawn) [Example 178, (1s,4s)-4-(2-(4-hydroxytetrahydrofuran-3-ylamino)-8-(2,4,6-trifluorophenylamino)-9H-purin-9-yl)cyclohexanecarboxamide], more than 1000 nM.
For `NC(=O)[C@H]1CC[C@@H](n2c(Nc3cc(F)c(Cl)cc3Cl)nc3cnc(NC4CCOCC4)nc32)CC1` [Example 105, (1s,4s)-4-(8-(2,4-dichloro-5-fluorophenylamino)-2-(tetrahydro-2H-pyran-4-ylamino)-9H-purin-9-yl)cyclohexanecarboxamide], the IC50 is more than 1000 nM.
On the same count and under the same terms, the same measure for `CC1(C)CC[C@@H](Nc2ncc3nc(Nc4c(F)ccc(Cl)c4F)n([C@H]4CC[C@@H](C(N)=O)CC4)c3n2)C[C@H]1O` [Example 390, (1S,4s)-4-(8-(3-chloro-2,6-difluorophenylamino)-2-((1R,3R)-3-hydroxy-4,4-dimethylcyclohexylamino)-9H-purin-9-yl)cyclohexanecarboxamide]: more than 1000 nM; for `C[C@@H](CO)Nc1ncc2nc(Nc3c(F)cc(Cl)cc3F)n([C@H]3CC[C@@H](C(N)=O)CC3)c2n1` [Example 169, (1R,4s)-4-(8-(4-chloro-2,6-difluorophenylamino)-2-((S)-1-hydroxypropan-2-ylamino)-9H-purin-9-yl)cyclohexanecarboxamide]: 500 to 1000 nM.
The same measure, in the same setting: for `C[C@@H](CO)Nc1ncc2nc(Nc3c(F)cc(C#N)cc3F)n([C@H]3CC[C@@H](C(N)=O)CC3)c2n1` [Example 394, (1R,4s)-4-(8-(4-cyano-2,6-difluorophenylamino)-2-((S)-1-hydroxypropan-2-ylamino)-9H-purin-9-yl)cyclohexanecarboxamide] the value was more than 1000 nM; for `NC(=O)[C@H]1CC[C@@H](n2c(Nc3c(F)cccc3Cl)nc3cnc(N[C@H]4C[C@H](O)C4)nc32)CC1` [Example 281, (1s,4s)-4-(8-(2-chloro-6-fluorophenylamino)-2-((1R,3r)-3-hydroxycyclobutylamino)-9H-purin-9-yl)cyclohexanecarboxamide], more than 1000 nM.
Same read-out and setting: the same measure for `NC(=O)[C@H]1CC[C@@H](n2c(Nc3c(F)cccc3F)nc3cnc(N[C@@H]4CCC[C@H]4O)nc32)CC1` [Example 251, (1S,4s)-4-(8-(2,6-difluorophenylamino)-2-((1R,2R)-2-hydroxycyclopentylamino)-9H-purin-9-yl)cyclohexanecarboxamide]: more than 1000 nM.

The test is the same for the next values; noted with them: Homo sapiens; Lox-IMVI anti-proliferative assay, IC50 activity level; read-out: Activity.
Turning to `N#Cc1cc(Cl)c(Nc2nc3cnc(N[C@H]4CCCC[C@H](O)C4)nc3n2[C@H]2CC[C@@H](C(N)=O)CC2)c(Cl)c1` [Example 449, (1R,4s)-4-(8-(2,6-dichloro-4-cyanophenylamino)-2-((1S,3S)-3-hydroxycycloheptylamino)-9H-purin-9-yl)cyclohexanecarboxamide], the IC50 was more than 1000 nM.
In the case of `C[C@]1(C(N)=O)CC[C@@H](n2c(Nc3c(F)cc(C#N)cc3Cl)nc3cnc(NC4CCCC4)nc32)CC1` [Example 575, (1s,4s)-4-(8-(2-chloro-4-cyano-6-fluorophenylamino)-2-(cyclopentylamino)-9H-purin-9-yl)-1-methylcyclohexanecarboxamide], the IC50 is less than 250 nM.
`NC(=O)[C@H]1CC[C@@H](n2c(Nc3c(Cl)cccc3Cl)nc3cnc(N[C@@H]4CCC[C@@H](O)C4)nc32)CC1` [Example 417, (1S,4s)-4-(8-(2,6-dichlorophenylamino)-2-((1R,3R)-3-hydroxycyclohexylamino)-9H-purin-9-yl)cyclohexanecarboxamide]: the IC50 is more than 1000 nM.
On to `C[C@]1(C(N)=O)CC[C@@H](n2c(Nc3c(Cl)cc(Cl)cc3Cl)nc3cnc(NC4CCOCC4)nc32)CC1` [Example 522, (1s,4s)-1-methyl-4-(2-(tetrahydro-2H-pyran-4-ylamino)-8-(2,4,6-trichlorophenylamino)-9H-purin-9-yl)cyclohexanecarboxamide], for which the IC50 is less than 250 nM.

The same test, now with this note: Homo sapiens; Lox-IMVI melanoma cell line, anti-proliferative assay; read-out: Activity (IC50 activity level).
With `C[C@]1(C(N)=O)CC[C@@H](n2c(Nc3c(F)cc(Cl)cc3Cl)nc3cnc(N[C@H]4CC[C@H](O)C4)nc32)CC1` [Example 646, (1R,4s)-4-(8-(2,4-dichloro-6-fluorophenylamino)-2-((1S,3S)-3-hydroxycyclopentylamino)-9H-purin-9-yl)-1-methylcyclohexanecarboxamide], the IC50 fell in the range of 250 to 500 nM.
Regarding `C[C@]1(C(N)=O)CC[C@@H](n2c(Nc3c(F)cc(C#N)cc3F)nc3cnc(NC4CCC4)nc32)CC1` [Example 601, (1s,4s)-4-(8-(4-cyano-2,6-difluorophenylamino)-2-(cyclobutylamino)-9H-purin-9-yl)-1-methylcyclohexanecarboxamide], the IC50 was less than 250 nM.
Turning to `N#Cc1cc(Cl)c(Nc2nc3cnc(N[C@@H]4CCCN(C(=O)Nc5ccccc5)C4)nc3n2[C@H]2CC[C@@H](C(N)=O)CC2)c(Cl)c1` [Example 780, (R)-3-(9-((1s,4S)-4-carbamoylcyclohexyl)-8-(2,6-dichloro-4-cyanophenylamino)-9H-purin-2-ylamino)-N-phenylpiperidine-1-carboxamide], the IC50 was more than 1000 nM.
Consider `C[C@]1(C(N)=O)CC[C@@H](n2c(Nc3c(F)cc(F)cc3Cl)nc3cnc(N[C@@H]4CC[C@@H](O)C4)nc32)CC1` [Example 635, (1S,4s)-4-(8-(2-chloro-4,6-difluorophenylamino)-2-((1R,3R)-3-hydroxycyclopentylamino)-9H-purin-9-yl)-1-methylcyclohexanecarboxamide], for which the IC50 was in the range of 250 to 500 nM.
Consider `CNC(=O)N1CCC[C@@H](Nc2ncc3nc(Nc4c(Cl)cc(C(F)(F)F)cc4Cl)n([C@H]4CC[C@@H](C(N)=O)CC4)c3n2)C1` [Example 796, (R)-3-(9-((1s,4S)-4-carbamoylcyclohexyl)-8-(2,6-dichloro-4-(trifluoromethyl)phenylamino)-9H-purin-2-ylamino)-N-methylpiperidine-1-carboxamide], for which the IC50 was more than 1000 nM.
Regarding `N#Cc1cc(F)c(Nc2nc3cnc(NC[C@@H]4CCCC[C@@H]4O)nc3n2[C@H]2CC[C@@H](C(N)=O)CC2)c(Cl)c1` [Example 658, (1R,4s)-4-(8-(2-chloro-4-cyano-6-fluorophenylamino)-2-(((1S,2S)-2-hydroxycyclohexyl)methylamino)-9H-purin-9-yl)cyclohexanecarboxamide], the IC50 was more than 1000 nM.
